Measured values reported in patent publication US20250215101A1, “DR5 Agonist and PLK1 Inhibitor or CDK Inhibitor Combination Therapy” (Inhibrx Biosciences, Inc., priority 2022, published 2025).

Legend:
Assay in all cases: Cytotoxicity assay, colorectal cancer cell line panel, onvansertib +/- 1 nM INBRX-109
Assay type in all cases: cell-based
[1] = system: COLO320DM; conditions: for EC50: Homo sapiens, COLO 320DM
Experimental: (§1) Monolayer cultures of each cell line were harvested for compound screening as detailed below.
(§2) Also on day 2, test and control articles were added.
(§3) On day 4, viability measurements were taken. […] Data was graphed in GraphPad Prism 9.
(§4) The results for a panel of colorectal cancer cell lines are shown in Table 3 and FIGS. 4-6, and the results for a panel of pancreatic cell lines are shown in Table 4 and FIGS. 7 and 8.

[2] = system: DLD-1; conditions: for Max Cytotox at 600 nM: DLD-1; for EC50: Homo sapiens, DLD-1, DLD-1
Experimental: as §1, §2, §3, §4

[3] = system: HCT 116; conditions: for Max Cytotox at 600 nM: HCT 116; for EC50: Homo sapiens, HCT-116, HCT 116
Experimental: as §1, §2, §3, §4

[4] = system: HCT-15; conditions: for Max Cytotox at 600 nM: HCT-15; for EC50: Homo sapiens, HCT-15, HCT-15
Experimental: as §1, §2, §3, §4

[5] = system: HCT-8; conditions: for Max Cytotox at 600 nM: HCT-8; for EC50: Homo sapiens, HCT-8, HCT-8
Experimental: as §1, §2, §3, §4

[6] = system: HT-29; conditions: for Max Cytotox at 600 nM: HT-29; for EC50: Homo sapiens, HT-29, HT-29
Experimental: as §1, §2, §3, §4

[7] = system: HT-55; conditions: for Max Cytotox at 600 nM: HT-55; for EC50: Homo sapiens, HT55, HT-55
Experimental: as §1, §2, §3, §4

[8] = system: Hutu 80; conditions: for EC50: Homo sapiens, HuTu80, Hutu 80; for Max Cytotox at 600 nM: Hutu 80
Experimental: as §1, §2, §3, §4

[9] = system: LS 1034; conditions: for EC50: Homo sapiens, LS-1034, LS 1034; for Max Cytotox at 600 nM: LS 1034
Experimental: as §1, §2, §3, §4

[10] = system: LS 123; conditions: for EC50: Homo sapiens, LS-123, LS 123; for Max Cytotox at 600 nM: LS 123
Experimental: as §1, §2, §3, §4

[11] = system: LS 180; conditions: for EC50: Homo sapiens, LS180, LS 180; for Max Cytotox at 600 nM: LS 180
Experimental: as §1, §2, §3, §4

[12] = system: LS 513; conditions: for EC50: Homo sapiens, LS-513, LS 513; for Max Cytotox at 600 nM: LS 513
Experimental: as §1, §2, §3, §4

[13] = system: LS174T; conditions: for EC50: Homo sapiens
Experimental: as §1, §2, §3, §4

[14] = system: LoVo; conditions: for EC50: Homo sapiens
Experimental: as §1, §2, §3, §4

[15] = system: NCI-H716; conditions: for EC50: Homo sapiens, NCI-H716, NCI-H716; for Max Cytotox at 600 nM: NCI-H716
Experimental: as §1, §2, §3, §4

For `CN1CCN(c2ccc(OC(F)(F)F)c(Nc3ncc4c(n3)-c3c(c(C(N)=O)nn3CCO)CC4)c2)CC1` [Onvansertib], the EC50 ([1]; onvansertib + 1 nM INBRX-109) was 283 nM, the EC50 ([1]; onvansertib only) was 382 nM and the “Max Cytotox at 600 nM” value ([1]; onvansertib + 1 nM INBRX-109) was 79.6%. For the same molecule, the “Max Cytotox at 600 nM” value ([1]; onvansertib only) was 58.3%, the “Max Cytotox at 600 nM” value ([2]; onvansertib + 1 nM INBRX-109) was 90.4% and the “Max Cytotox at 600 nM” value ([2]; onvansertib only) was 45.8%. For the same molecule, the EC50 ([2]; onvansertib + 1 nM INBRX-109) was 184 nM, the EC50 ([2]; onvansertib only) was 280 nM and the “Max Cytotox at 600 nM” value ([3]; onvansertib + 1 nM INBRX-109) was 96.6%. The “Max Cytotox at 600 nM” value ([3]; onvansertib only) was 76.0%, the EC50 ([3]; onvansertib + 1 nM INBRX-109) was 66.8 nM and the EC50 ([3]; onvansertib only) was 112 nM. For the same molecule, the “Max Cytotox at 600 nM” value ([4]; onvansertib + 1 nM INBRX-109) was 94.9%, the “Max Cytotox at 600 nM” value ([4]; onvansertib only) was 61.4% and the EC50 ([4]; onvansertib + 1 nM INBRX-109) was 175 nM. The EC50 ([4]; onvansertib only) was 268 nM, the “Max Cytotox at 600 nM” value ([5]; onvansertib + 1 nM INBRX-109) was 81.3% and the “Max Cytotox at 600 nM” value ([5]; onvansertib only) was 52.7%. The EC50 ([5]; onvansertib + 1 nM INBRX-109) was 200 nM, the EC50 ([5]; onvansertib only) was 205 nM and the “Max Cytotox at 600 nM” value ([6]; onvansertib + 1 nM INBRX-109) was 98.3%. For the same molecule, the “Max Cytotox at 600 nM” value ([6]; onvansertib only) was 45.6%, the EC50 ([6]; onvansertib + 1 nM INBRX-109) was 43 nM and the EC50 ([6]; onvansertib only) was 61.6 nM. For the same molecule, the “Max Cytotox at 600 nM” value ([7]; onvansertib + 1 nM INBRX-109) was 87.9%, the “Max Cytotox at 600 nM” value ([7]; onvansertib only) was 41.8% and the EC50 ([7]; onvansertib + 1 nM INBRX-109) was 44.1 nM. It also gave an EC50 ([7]; onvansertib only) of 51.4 nM, an EC50 ([8]; onvansertib + 1 nM INBRX-109) of 133 nM and an EC50 ([8]; onvansertib only) of 138 nM. For the same molecule, the “Max Cytotox at 600 nM” value ([8]; onvansertib + 1 nM INBRX-109) was 86.5%, the “Max Cytotox at 600 nM” value ([8]; onvansertib only) was 85.4% and the EC50 ([9]; onvansertib + 1 nM INBRX-109) was 199 nM. For the same molecule, the EC50 ([9]; onvansertib only) was 237 nM, the “Max Cytotox at 600 nM” value ([9]; onvansertib + 1 nM INBRX-109) was 85.8% and the “Max Cytotox at 600 nM” value ([9]; onvansertib only) was 38.8%. For the same molecule, the EC50 ([10]; onvansertib + 1 nM INBRX-109) was 172 nM, the EC50 ([10]; onvansertib only) was 150 nM and the “Max Cytotox at 600 nM” value ([10]; onvansertib + 1 nM INBRX-109) was 24.1%. For the same molecule, the “Max Cytotox at 600 nM” value ([10]; onvansertib only) was 9.6%, the EC50 ([11]; onvansertib + 1 nM INBRX-109) was 197 nM and the EC50 ([11]; onvansertib only) was 505 nM. The “Max Cytotox at 600 nM” value ([11]; onvansertib + 1 nM INBRX-109) was 86.2%, the “Max Cytotox at 600 nM” value ([11]; onvansertib only) was 42.9% and the EC50 ([12]; onvansertib + 1 nM INBRX-109) was 101 nM. For the same molecule, the EC50 ([12]; onvansertib only) was 215 nM, the “Max Cytotox at 600 nM” value ([12]; onvansertib + 1 nM INBRX-109) was 93.7% and the “Max Cytotox at 600 nM” value ([12]; onvansertib only) was 39.6%. The EC50 ([13]; onvansertib + 1 nM INBRX-109) was 109 nM, the EC50 ([13]; onvansertib only) was 252 nM and the “Max Cytotox at 600 nM” value ([13]; onvansertib + 1 nM INBRX-109) was 94.1%. The “Max Cytotox at 600 nM” value ([13]; onvansertib only) was 59.5%, the EC50 ([14]; onvansertib + 1 nM INBRX-109) was 41.8 nM and the EC50 ([14]; onvansertib only) was 34.1 nM. For the same molecule, the “Max Cytotox at 600 nM” value ([14]; onvansertib + 1 nM INBRX-109) was 90.8%, the “Max Cytotox at 600 nM” value ([14]; onvansertib only) was 29.6% and the EC50 ([15]; onvansertib + 1 nM INBRX-109) was 83.6 nM. The EC50 ([15]; onvansertib only) was 81.3 nM, the “Max Cytotox at 600 nM” value ([15]; onvansertib + 1 nM INBRX-109) was 51.2% and the “Max Cytotox at 600 nM” value ([15]; onvansertib only) was 34.8%.
